Reference: US4499083A, “3-O-Demethyl derivatives of the istamycin B series of compounds” (Zaidan Hojin Biseibutsu Kagaku Kenkyu Kai, priority 1980, dated 1985)
In brackets after ≈: the same amount, converted by molar mass. Read-outs that look alike come from different tables or passages of the source.

Assays:
Assay in all cases: Antibacterial spectrum, MIC by serial dilution on nutrient agar
Format in all cases: cell-based
Escherichia coli K-12 = conditions: K12, 37° C., 17 hours, read-out: Minimum inhibitory concentration
Escherichia coli NIHJ = conditions: read-out: Minimum inhibitory concentration
[1] = tested on: Pseudomonas aeruginosa No. 12; conditions: 37° C., 17 hours, read-out: Minimum inhibitory concentration
Salmonella typhi T-63 = conditions: Salmonella enterica, 17 h, read-out: Minimum inhibitory concentration
[2] = tested on: Escherichia coli K-12 ML1410 R81; conditions: K12ML1410R81, 17 h, read-out: Minimum inhibitory concentration
[3] = tested on: Pseudomonas maltophilia GN 907; conditions: Stenotrophomonas maltophilia, GN907, 37° C., 17 hours, read-out: Minimum inhibitory concentration
[4] = tested on: Escherichia coli K-12 LA290 R56; conditions: K12LA290R56, 17 h, read-out: Minimum inhibitory concentration
[5] = tested on: Escherichia coli K-12 R388; conditions: K12R388, 17 h, read-out: Minimum inhibitory concentration
[6] = tested on: Pseudomonas aeruginosa H9; conditions: 37° C., 17 hours, read-out: Minimum inhibitory concentration
[7] = tested on: Escherichia coli K-12 LA290 R55; conditions: K12LA290R55, 17 h, read-out: Minimum inhibitory concentration
Serratia sp. SOU = conditions: 37° C., 17 hours, read-out: Minimum inhibitory concentration
[8] = tested on: Corynebacterium bovis 1810; conditions: read-out: Minimum inhibitory concentration
[9] = tested on: Shigella dysenteriae JS11910; conditions: JS11910, 17 h, read-out: Minimum inhibitory concentration
Serratia sp. 4 = conditions: 37° C., 17 hours, read-out: Minimum inhibitory concentration
Serratia marcescens = conditions: read-out: Minimum inhibitory concentration
Sarcina lutea PCI 1001 = conditions: Micrococcus luteus, PCI1001, 37° C., 17 hours, read-out: Minimum inhibitory concentration
Providencia sp. Pv16 = conditions: 37° C., 17 hours, read-out: Minimum inhibitory concentration
[10] = tested on: Staphylococcus aureus Smith; conditions: read-out: Minimum inhibitory concentration
[11] = tested on: Micrococcus flavus FDA 16; conditions: FDA16, 37° C., 17 hours, read-out: Minimum inhibitory concentration
Providencia sp. 2991 = conditions: 37° C., 17 hours, read-out: Minimum inhibitory concentration
[12] = tested on: Bacillus subtilis NRRL B-558; conditions: read-out: Minimum inhibitory concentration
[13] = tested on: Staphylococcus epidermidis 109; conditions: 37° C., 17 hours, read-out: Minimum inhibitory concentration
[14] = tested on: Pseudomonas aeruginosa PST1; conditions: 37° C., 17 hours, read-out: Minimum inhibitory concentration
[15] = tested on: Mycobacterium smegmatis ATCC 607; conditions: Mycolicibacterium smegmatis, read-out: Minimum inhibitory concentration
Proteus rettgeri GN311 = conditions: Providencia rettgeri, 37° C., 17 hours, read-out: Minimum inhibitory concentration
[16] = tested on: Pseudomonas aeruginosa TI-13; conditions: TI13, 37° C., 17 hours, read-out: Minimum inhibitory concentration
[17] = tested on: Pseudomonas aeruginosa GN315; conditions: 37° C., 17 hours, read-out: Minimum inhibitory concentration
[18] = tested on: Pseudomonas aeruginosa A3; conditions: 37° C., 17 hours, read-out: Minimum inhibitory concentration
[19] = tested on: Staphylococcus aureus Ap01; conditions: 37° C., 17 hours, read-out: Minimum inhibitory concentration
[20] = tested on: Bacillus subtilis PCI 219; conditions: read-out: Minimum inhibitory concentration
[21] = tested on: Pseudomonas aeruginosa 21-75; conditions: 2175, 37° C., 17 hours, read-out: Minimum inhibitory concentration
[22] = tested on: Escherichia coli JR66/W677; conditions: JR66/W677, 17 h, read-out: Minimum inhibitory concentration
Proteus vulgaris OX19 = conditions: 37° C., 17 hours, read-out: Minimum inhibitory concentration
[23] = tested on: Klebsiella pneumoniae PCI602; conditions: 37° C., 17 hours, read-out: Minimum inhibitory concentration
Escherichia coli K-12 R5 = conditions: K12R5, 17 h, read-out: Minimum inhibitory concentration
[24] = tested on: Pseudomonas aeruginosa ROS 134/PU21; conditions: ROS134/PU21, 17 h, read-out: Minimum inhibitory concentration
[25] = tested on: Pseudomonas aeruginosa K-Ps 102; conditions: read-out: Minimum inhibitory concentration
Proteus rettgeri GN466 = conditions: Providencia rettgeri, read-out: Minimum inhibitory concentration
[26] = tested on: Pseudomonas aeruginosa H11; conditions: 37° C., 17 hours, read-out: Minimum inhibitory concentration
[27] = Escherichia coli NIHJ, nutrient agar, 37° C., 17 hours
[28] = Corynebacterium bovis 1810, nutrient agar, 37° C., 17 hours
[29] = Staphylococcus aureus Smith, nutrient agar, 37° C., 17 hours
[30] = NRRLB558, Bacillus subtilis NRRL B-558, nutrient agar, 37° C., 17 hours
[31] = ATCC607, Mycobacterium smegmatis ATCC 607, nutrient agar, 37° C., 17 hours
[32] = PCI219, Bacillus subtilis PCI 219, nutrient agar, 37° C., 17 hours
[33] = KPS102, Pseudomonas aeruginosa K-Ps 102, nutrient agar, 37° C., 17 hours
[34] = nutrient agar, 37° C., 17 hours

CNCC1CCC(N)C(OC2C(N)CC(O)C(N(C)C(=O)CNC=N)C2O)O1 (stereo not drawn) [3-O-Demethyl-2"-N-formimidoylistamycin B]
MIC (Escherichia coli K-12): 1.56 µg/mL (≈ 3.88 µM)
MIC (Escherichia coli NIHJ; [27]): 1.56 µg/mL (≈ 3.88 µM)
MIC [1]: 12.5 µg/mL (≈ 31.1 µM)
MIC (Salmonella typhi T-63): 0.78 µg/mL (≈ 1.94 µM)
MIC [2]: 1.56 µg/mL (≈ 3.88 µM)
MIC [3]: > 100 µg/mL
MIC [4]: 1.56 µg/mL (≈ 3.88 µM)
MIC [5]: 1.56 µg/mL (≈ 3.88 µM)
MIC [6]: 12.5 µg/mL (≈ 31.1 µM)
MIC [7]: 1.56 µg/mL (≈ 3.88 µM)
MIC (Serratia sp. SOU): > 100 µg/mL
MIC [8, 28]: 0.78 µg/mL (≈ 1.94 µM)
MIC [9]: 3.13 µg/mL (≈ 7.78 µM)
MIC (Serratia sp. 4): 6.25 µg/mL (≈ 15.5 µM)
MIC (Serratia marcescens; 17 h): 3.13 µg/mL (≈ 7.78 µM)
MIC (Sarcina lutea PCI 1001): < 0.2 µg/mL
MIC (Providencia sp. Pv16): 25 µg/mL (≈ 62.1 µM)
MIC [10, 29]: < 0.2 µg/mL
MIC [11]: < 0.2 µg/mL
MIC (Providencia sp. 2991): 12.5 µg/mL (≈ 31.1 µM)
MIC [12, 30]: < 0.2 µg/mL
MIC [13]: 0.78 µg/mL (≈ 1.94 µM)
MIC [14]: 25 µg/mL (≈ 62.1 µM)
MIC [15, 31]: < 0.2 µg/mL
MIC (Proteus rettgeri GN311): 12.5 µg/mL (≈ 31.1 µM)
MIC [16]: 6.25 µg/mL (≈ 15.5 µM)
MIC [17]: 6.25 µg/mL (≈ 15.5 µM)
MIC [18]: 1.56 µg/mL (≈ 3.88 µM)
MIC [19]: 0.78 µg/mL (≈ 1.94 µM)
MIC [20, 32]: < 0.2 µg/mL
MIC [21]: 25 µg/mL (≈ 62.1 µM)
MIC [22]: 3.13 µg/mL (≈ 7.78 µM)
MIC (Proteus vulgaris OX19): 0.39 µg/mL (≈ 0.969 µM)
MIC [23]: 1.56 µg/mL (≈ 3.88 µM)
MIC (Escherichia coli K-12 R5): 3.13 µg/mL (≈ 7.78 µM)
MIC [24]: 50 µg/mL (≈ 124 µM)
MIC [25, 33]: 12.5 µg/mL (≈ 31.1 µM)
MIC (Proteus rettgeri GN466; GN466, 17 h): 3.13 µg/mL (≈ 7.78 µM)
MIC [26]: 25 µg/mL (≈ 62.1 µM)

CNCC1CCC(N)C(OC2C(N)CC(OC)C(N(C)C(=O)CN)C2O)O1 (stereo not drawn) [Istamycin B, istamycin B]
MIC (Escherichia coli K-12): 1.56 µg/mL (≈ 4.01 µM)
MIC (Escherichia coli NIHJ; [27]): 1.56 µg/mL (≈ 4.01 µM)
MIC [1]: 100 µg/mL (≈ 257 µM)
MIC (Salmonella typhi T-63): 0.39 µg/mL (≈ 1 µM)
MIC [2]: 1.56 µg/mL (≈ 4.01 µM)
MIC [3]: > 100 µg/mL
MIC [4]: 1.56 µg/mL (≈ 4.01 µM)
MIC [5]: 1.56 µg/mL (≈ 4.01 µM)
MIC [6]: 50 µg/mL (≈ 128 µM)
MIC [7]: 3.13 µg/mL (≈ 8.04 µM)
MIC (Serratia sp. SOU): 100 µg/mL (≈ 257 µM)
MIC [8, 28]: 0.78 µg/mL (≈ 2 µM)
MIC [9]: 3.13 µg/mL (≈ 8.04 µM)
MIC (Serratia sp. 4): 50 µg/mL (≈ 128 µM)
MIC (Serratia marcescens; [34]): 6.25 µg/mL (≈ 16 µM)
MIC (Sarcina lutea PCI 1001): 0.2 µg/mL (≈ 0.513 µM)
MIC (Providencia sp. Pv16): 6.25 µg/mL (≈ 16 µM)
MIC [10, 29]: < 0.2 µg/mL
MIC [11]: 6.25 µg/mL (≈ 16 µM)
MIC (Providencia sp. 2991): 6.25 µg/mL (≈ 16 µM)
MIC [12, 30]: < 0.2 µg/mL
MIC [13]: 0.78 µg/mL (≈ 2 µM)
MIC [14]: 100 µg/mL (≈ 257 µM)
MIC [15, 31]: 0.78 µg/mL (≈ 2 µM)
MIC (Proteus rettgeri GN311): 12.5 µg/mL (≈ 32.1 µM)
MIC [16]: 25 µg/mL (≈ 64.2 µM)
MIC [17]: 50 µg/mL (≈ 128 µM)
MIC [18]: 6.25 µg/mL (≈ 16 µM)
MIC [19]: 0.78 µg/mL (≈ 2 µM)
MIC [20, 32]: < 0.2 µg/mL
MIC [21]: 100 µg/mL (≈ 257 µM)
MIC [22]: 3.13 µg/mL (≈ 8.04 µM)
MIC (Proteus vulgaris OX19): 0.39 µg/mL (≈ 1 µM)
MIC [23]: 1.56 µg/mL (≈ 4.01 µM)
MIC (Escherichia coli K-12 R5): 3.13 µg/mL (≈ 8.04 µM)
MIC [24]: > 100 µg/mL
MIC [25, 33]: 50 µg/mL (≈ 128 µM)
MIC (Proteus rettgeri GN466; Proteus rettgeri GN466, nutrient agar, 37° C., 17 hours): 6.25 µg/mL (≈ 16 µM)
MIC [26]: 50 µg/mL (≈ 128 µM)

CNCC1CCC(N)C(OC2C(N)CC(O)C(N(C)C(=O)CN)C2O)O1 (stereo not drawn) [3-O-Demethylistamycin B]
MIC (Escherichia coli K-12): 3.13 µg/mL (≈ 8.34 µM)
MIC (Escherichia coli NIHJ; Escherichia coli, 17 h): 1.56 µg/mL (≈ 4.15 µM)
MIC [1]: 12.5 µg/mL (≈ 33.3 µM)
MIC (Salmonella typhi T-63): 1.56 µg/mL (≈ 4.15 µM)
MIC [2]: 3.13 µg/mL (≈ 8.34 µM)
MIC [3]: > 100 µg/mL
MIC [4]: 3.13 µg/mL (≈ 8.34 µM)
MIC [5]: 1.56 µg/mL (≈ 4.15 µM)
MIC [6]: 25 µg/mL (≈ 66.6 µM)
MIC [7]: 6.25 µg/mL (≈ 16.6 µM)
MIC (Serratia sp. SOU): 25 µg/mL (≈ 66.6 µM)
MIC ([8]; Corynebacterium bovis, 1810, 17 h): 1.56 µg/mL (≈ 4.15 µM)
MIC [9]: 6.25 µg/mL (≈ 16.6 µM)
MIC (Serratia sp. 4): 12.5 µg/mL (≈ 33.3 µM)
MIC (Serratia marcescens; [34]): 12.5 µg/mL (≈ 33.3 µM)
MIC (Sarcina lutea PCI 1001): 0.39 µg/mL (≈ 1.04 µM)
MIC (Providencia sp. Pv16): 25 µg/mL (≈ 66.6 µM)
MIC ([10]; Staphylococcus aureus, 17 h): < 0.2 µg/mL
MIC [11]: 3.13 µg/mL (≈ 8.34 µM)
MIC (Providencia sp. 2991): 12.5 µg/mL (≈ 33.3 µM)
MIC ([12]; Bacillus subtilis, NRRLB558, 17 h): < 0.2 µg/mL
MIC [13]: 0.78 µg/mL (≈ 2.08 µM)
MIC [14]: 50 µg/mL (≈ 133 µM)
MIC ([15]; ATCC607, 17 h): < 0.2 µg/mL
MIC (Proteus rettgeri GN311): 12.5 µg/mL (≈ 33.3 µM)
MIC [16]: 12.5 µg/mL (≈ 33.3 µM)
MIC [17]: 12.5 µg/mL (≈ 33.3 µM)
MIC [18]: 3.13 µg/mL (≈ 8.34 µM)
MIC [19]: 0.78 µg/mL (≈ 2.08 µM)
MIC ([20]; Bacillus subtilis, PCI219, 17 h): < 0.2 µg/mL
MIC [21]: 50 µg/mL (≈ 133 µM)
MIC [22]: 6.25 µg/mL (≈ 16.6 µM)
MIC (Proteus vulgaris OX19): 0.78 µg/mL (≈ 2.08 µM)
MIC [23]: 3.13 µg/mL (≈ 8.34 µM)
MIC (Escherichia coli K-12 R5): 6.25 µg/mL (≈ 16.6 µM)
MIC [24]: 50 µg/mL (≈ 133 µM)
MIC ([25]; Pseudomonas aeruginosa, KPS102, 17 h): 6.25 µg/mL (≈ 16.6 µM)
MIC (Proteus rettgeri GN466; GN466, 17 h): 6.25 µg/mL (≈ 16.6 µM)
MIC [26]: 25 µg/mL (≈ 66.6 µM)
